# Measured values published in patent US20110318344A1, “Tumor Treatment” (MEDIZINISCHE UNIVERSITAET WIEN, priority 2009, published 2011).
# Entries after “also recorded” stand apart in the source; their conditions may differ.
# What was measured:
# SK-OV-3 cells = test: Proliferation assay (cell number by CASY cell counter, doubling time); format: cell-based, human
# Protocol: The SK-OV-3 cell line was cultured equally the MDAH-2774 cell line except for the use of McCoy's medium. For applying the Tet-Off inducible system, founder cell lines were generated by transfecting SK-OV-3 cells with the pTet-Off vector (neo^r) encoding a tetracyclin repressible transactivator (tTA). Resistant colonies were selected with 200 μg/ml G418 and characterized by transient transfection with the luciferase reporter plasmid (pTRE-Luc), whose promoter is induced by the transactivator. Luciferase activity in the presence and absence of tetracycline was measured to identify cells with maximal promoter inducibility. […] These two founder cell lines were used to establish cells inducible for HCRP1-specific shRNA constructs (Open Biosystems; #V2HS 21202, #V2HS 21203), which were cloned into the SIN-TREmiR30-PIG vector (purr) downstream of the tetracycline inducible promoter. Thus, presence of tetracycline in the culture medium would suppress shRNA expression, while its withdrawal would induce the knock-down of HCRP1. […]
# To maintain the logarithmic phase, cells were split at intervals of 48 hours, along with the determination of the cell number by a CASY cell counter (Innovatis AG, Bielefeld, Germany). […] From the obtained data doubling times (dt) were calculated and depicted as dt-1.
# MDAH-2774 cells = test: as above; format: cell-based, human; conditions: MDAH-2774, HCRP1-silenced vs controls (FIG. 7B)
# Protocol: To maintain the logarithmic phase, cells were split at intervals of 48 hours, along with the determination of the cell number by a CASY cell counter (Innovatis AG, Bielefeld, Germany). This procedure was performed in triplicates over a time-span of 6 days and confirmed by a replication of the whole experiment. From the obtained data doubling times (dt) were calculated and depicted as dt-1.
smiles,measurement,setting,value
CS(=O)(=O)CCNCc1ccc(-c2ccc3ncnc(Nc4ccc(OCc5cccc(F)c5)c(Cl)c4)c3c2)o1 [Lapatinib],dependence of the anti-proliferative effect on HCRP1 expression,"SK-OV-3 cells; SKOV-3, HCRP1-silenced vs controls (FIG. 7A)",independent of HCRP1 expression; also recorded: unaffected by HCRP1 expression
same,doubling time,"SK-OV-3 cells; SKOV-3 cells, 4 μM Lapatinib, 6 days, HCRP1 status not specified",37.3 h
same,dependence of the anti-proliferative effect on HCRP1 expression,MDAH-2774 cells,independent of HCRP1 expression
